Laboratory results as given in a melting point compilation (Tetko et al.; mined from patent text by program, amines drawn as free bases though some values may be those of a salt).

Row | SMILES | melting point [°C]
1 | COc1cc2ncc(C#N)c(Nc3ccc(F)c(Cl)c3)c2cc1NC(=O)C=CCN1CCC(O)(O)CC1 | 225 to 230
2 | Cc1ccc(C(=O)Nc2ccccc2)cc1NC(=S)Nc1cc(Cl)cc(Cl)c1 | 182 to 184
3 | OP(O)C(NC(c1ccccc1)c1ccccc1)c1ccc2c(c1)OCO2 (stereo unspecified) | 194 to 195
4 | CC(C)(C)OC(=O)N1CCC(c2nc(-c3ccc(-c4ccccc4)cc3)c[nH]2)CC1 | 120 to 122
5 | O=C1c2c(Cl)ccc(Cl)c2C(=O)N1CCN1CCC(c2noc3cc(F)ccc23)CC1 | 163 to 164
6 | CCCCNc1ncn(-c2c(CC)cccc2CC)c(=O)n1 | 178 to 179
7 | N=C(Nc1cccc(NC(=O)/C=C/c2cccc(Cl)c2)c1)c1ccccc1 | 260 to 262
8 | CC(=O)OCCCCCC1CC2=CC(=O)CCC2C2C(F)CC3(C)C(=O)CCC3C12 (stereo unspecified) | 78.4
9 | O=c1ccc(C(F)(F)F)cn1-c1ccc(NCCCN2CCCCC2)cc1Cl | 112 to 115
10 | CSc1nc(N)c(C=O)s1 | 159 to 162
11 | CCc1cn(C2CC(O)C(CNC(=O)C(C)Oc3ccc(Cl)cc3Cl)O2)c(=O)[nH]c1=O (mixture of isomers) | 240 to 243
12 | CC(C)n1nc(-c2cc(C#N)c(Cl)nc2-c2ccccc2)ccc1=O | 191 to 192
13 | CCn1cc(C(=O)O)c(=O)c2c(C)c(F)c(F)c(F)c21 | 203 to 204
14 | Cc1ccc(S(=O)(=O)NC(=O)OCCc2ccc(-n3c(CCCc4ccccn4)nc4cc(C(F)(F)F)c(Cl)cc43)cc2)cc1 | 193
15 | c1ccc(COC2CCN(Cc3c[nH]c4ccccc34)CC2)cc1 | 143 to 145
16 | O=C(CCl)N[C@@H]1CCCC[C@H]1NC(=O)CCl (relative stereo) | 202 to 203
17 | CCOC(=O)N(CC)c1c(OC)cc(Cc2cnc(N)nc2N)cc1OC | 165 to 167
18 | CC(C)(C)C(=O)C(Cc1ccc(Cl)cc1)n1cncn1 (stereo unspecified) | 124
19 | O=C(Nc1nnc(C2CC2)o1)C(c1ccccc1)c1ccccc1 | 159 to 160
20 | CCNC(=O)n1nc(Oc2ncc(C(F)(F)F)cc2Cl)cc1CC | 85 to 86

Row | SMILES | melting point [°C]
21 | CCOC(=O)N1CC[C@H](NC(=O)c2cc([N+](=O)[O-])c(Cl)cc2OC)[C@H](OC)C1 (relative stereo) | 181
22 | CCCCCCCOc1c(C)cc2[nH]c(S(=O)Cc3ncc(C)c(OC)c3C)nc2c1C (stereo unspecified) | 116
23 | C=CCC(NC(=O)C(CCCCN)NC(=O)Cc1cn(CC=C)c2ccccc12)C(=O)OC (stereo unspecified) | 103 to 106
24 | CO[C@H]1C(=O)N(S(C)(=O)=O)[C@H]2CCN(C(=O)OCc3ccccc3)[C@H]12 (relative stereo) | 146 to 149
25 | O=C(C=Cc1cccc(S(=O)(=O)NCc2cccnc2)c1)NO | 191
26 | CCCCNS(=O)(=O)CC(O)(CCCC)C(N)C(O)CC1CCCCC1 (stereo unspecified) | 164 to 165
27 | CC(C)CCOC(=O)C(O)C(CC(C)C)NC(=O)C(Cc1c[nH]cn1)NC(=O)C(CC(=O)NCCc1ccccc1)Cc1cccc2ccccc12 (mixture of isomers) | 82 to 87
28 | O=C(COc1ccccc1)NC(Cc1ccccc1)C(=O)NNc1ccccc1 (stereo unspecified) | 172 to 175
29 | CCCCOC(=O)N1C(=O)[C@H](O)[C@@H]1c1ccccc1 | 88 to 89
30 | CCN(CC)C(=O)c1ncccc1OC(=S)N(CC)CC | 70 to 72
31 | C=C(F)c1c[nH]c(=O)[nH]c1=O | 235 to 238
32 | CC(C)(C)C12OOC1(c1ccc(C(=O)N3CCOCC3)c(O)c1)OCC2(C)C (stereo unspecified) | 114 to 116
33 | CC(Oc1ccc2nc(NC(=O)NCCN3CCN(C(=O)OC(C)(C)C)CC3)sc2c1)c1c(Cl)ccc(F)c1Cl (stereo unspecified) | 87
34 | FCCOc1ccc(COCc2ccc(Cl)cc2)cc1 | 43 to 43.7
35 | OC(COc1cccc2[nH]ncc12)CN1CCC(COc2ccccc2)CC1 (stereo unspecified) | 141 to 142
36 | CNC(=O)CC=C(CC(C)C)C(=O)O | 120 to 122
37 | CS(=O)(=O)Nc1ccc(Cl)cc1C(=Cc1ccc2ccccc2c1)C(N)=O | 179 to 184
38 | O=c1n(CCCF)nnn1-c1ccc(OCc2ccc(F)cc2)cc1F | 86 to 88
39 | CCCn1nc(Cc2ccc(-c3ccccc3S(=O)(=O)NC(=O)c3ccccc3)cc2)c(C(=O)O)c1Cc1ccccc1 | 105 to 109
40 | CC(C)c1nn(-c2ccc(C(F)(F)F)cn2)cc1CCCOc1nn(C)cc1CCC(=O)O | 124 to 125

Row | SMILES | melting point [°C]
41 | COc1ccc(S(=O)(=O)N(Cc2cccnc2)c2c(C(=O)O)cnc3onc(C)c23)cc1 | 244 to 246
42 | CCOc1ccccc1N(C[C@H]1CCC[C@H](CN(C(=O)Nc2ccc(N(C)C)cc2)c2ccccc2OCC)C1)C(=O)Nc1ccc(N(C)C)cc1 (relative stereo) | 130 to 135
43 | CC(=O)Nc1nc2c(sc(=O)n2C2OC(COC(C)=O)C(OC(C)=O)C2OC(C)=O)c(=O)[nH]1 (stereo unspecified) | 247 to 248
44 | O=CC(CC(=O)c1ccccc1)(c1ccccc1)c1ccccc1 | 125 to 127
45 | CC[C@H](CCC(=O)OC(C)(C)C)C(=O)N[C@@H](Cc1ccccc1)C(=O)OC | 120 to 121
46 | Oc1ccc(Cl)cc1C(O)(Cc1ccccc1)c1ccccc1 (stereo unspecified) | 128
47 | Cc1cc([N+](=O)[O-])c(Cl)c([N+](=O)[O-])c1S(=O)(=O)Cl | 105 to 107
48 | COc1cn(-c2ccc(N3CCOCC3)cc2F)nc(-c2ccnn2-c2ccccc2)c1=O | 226 to 228
49 | CC(=O)SCCC(=O)N1N=C(c2ccc(C(F)(F)F)cc2)SC1C(=O)OCc1ccccc1 (stereo unspecified) | 120 to 121
50 | CCc1c(-c2ccc(OCc3ccccc3)cc2)c2c(C(=O)N(C)C)cc3cccc1n32 | 92 to 95
51 | NC(=O)c1cn(C2CCCC2)nc1N | 179 to 181
52 | Cc1[nH]cc2c(=O)n(-c3ccc(Cl)cc3)nc-2c1-c1cccc(C(=O)N2CCCC2)c1 | 253 to 255
53 | O=[N+]([O-])c1ccc2c(c1)C(c1ccccn1)=CC(C(F)(F)F)(C(F)(F)F)O2 | 105 to 107
54 | NCCCCCCCCNc1nc(N)nc2c1ncn2C1C=CC(CO)C1 (stereo unspecified) | 125 to 127
55 | CC1N=C(c2ccccc2)c2cc(Br)ccc2NC1=O (stereo unspecified) | 210 to 212
56 | NC(=O)c1cccc(-c2ccc(Oc3ccccc3)cc2)n1 | 178 to 180
57 | Cn1ncc(/C=C/C(=O)Nc2ccc(Cc3nc(C(=O)O)cs3)cc2)c1-c1ccc(F)cc1 | 226 to 227
58 | CCC(=O)Nc1ccc(C(=O)C=CN(C)C)cc1 | 161 to 163
59 | O=C1N(CC2COCCO2)c2ccccc2C12COc1cc3c(cc12)OCCCO3 (stereo unspecified) | 137 to 139
60 | COc1ccc2c3c(cn2S(=O)(=O)c2c(C(C)C)cc(C(C)C)cc2C(C)C)C[C@H]2N(C)C(=O)CO[C@]2(C)c13 (relative stereo) | 155 to 157

Second part, the compound after the results:

Row | melting point [°C] | SMILES
61 | 187 to 189 | COc1cc2cc(C(=O)O)[nH]c2cc1OCCCl
62 | 284 to 285 | COc1ccc2nc3ccc(C#N)cn3c(=O)c2c1
63 | 198 to 199 | O=Cc1scc2c3ccccc3c3ccccc3c12
64 | 133 to 134 | COCc1ccc(C(=O)O)c2ccccc12
65 | 273 to 274 | CS(=O)(=O)c1ccc2ccc(C(=O)O)cc2c1
66 | 115 to 117 | COc1ccc2cc(N)cc(C)c2n1
67 | 214 to 217 | CCCc1ccc2c(C(=O)O)ccc(OC)c2n1
68 | 87.1 | CC(C(=O)NCCO)c1ccc(C(=O)c2cccs2)cc1 (stereo unspecified)
69 | 95 to 97 | CC(C)(C)c1cc(C(=O)c2cccs2)cc(CN2CCCC2)c1O
70 | 105 to 106 | CS(=O)(=O)c1ccc2c(c1)C(=O)Cc1ccccc1O2
71 | 61 to 63 | COC(=O)c1ccc(OC)c(Oc2ccccc2)c1
72 | > 310 | COc1ccc2nc3ccc(C(N)=O)cn3c(=O)c2c1
73 | 59 | CCOC(=O)c1cc(F)c(SCC)nc1NCc1ccc(OC)cc1
74 | 114 to 115 | CC(C)c1ccc(C2c3ccc(O)cc3OC2(C)C)cc1 (stereo unspecified)
75 | > 300 | COc1ccc(-c2nc3cc(Cl)c(Cl)cc3[nH]2)cc1N
76 | 94 to 96 | CCSc1cc(C)nc(SCC)c1NC(=O)CCCCCCCSc1nc2ccccc2s1
77 | 217 to 218 | COc1ccccc1N1CCN(CCCn2c(=O)[nH]c3sccc3c2=O)CC1
78 | 140 to 142 | COc1cc2cc(N(C)C)sc2cc1OCc1ccccc1
79 | 47 to 50 | CCOC(=O)C(=O)NCc1ccccc1
80 | 108 | O=C(C=Cc1cccc(Cl)c1)c1ccccc1O
81 | 76 to 78 | COc1ccc(Br)c2c1C(=O)C(C=O)C2 (stereo unspecified)

Row | melting point [°C] | SMILES
82 | 104 to 105 | CCCC1=C(c2ccccc2)[C@@H](c2ccccc2)OC1=O
83 | 167 to 168 | COC(=O)c1nc2ccccc2c(N)c1C(=O)OC
84 | 75 to 76 | Clc1ccc(-n2cc(Br)cn2)cc1
85 | 113 to 115 | O=c1c(Cl)c(-c2ccc(F)cc2)c1=O
86 | 263 to 264 | CCOC(=O)c1ncn2c1CNC(=O)c1sccc1-2
87 | 169 to 176 | Clc1nccc(Oc2ccc3[nH]ccc3c2)n1
88 | 130 | CON=C1CC(=NOC)c2ccccc2-c2ccccc21
89 | 92 to 94 | COc1ccc(C(=O)c2noc(CC#N)n2)cc1
90 | 135 | CCOC(=O)c1oc(-c2ccccc2)cc(=O)c1Br
91 | 291 to 292 | CS(=O)(=O)Nn1c(=O)[nH]c2cc(C(F)(F)F)c(-c3cccc(C#N)c3)cc2c1=O
92 | 151 to 152 | O=c1[nH][nH]c(C(F)(F)F)c1Cc1ccc(Cl)cc1
93 | 51 to 53 | Cc1ccc2c(Br)csc2c1
94 | 160 | CC(=O)OC1CSC(Oc2ccc3nc(C)sc3c2)C(OC(C)=O)C1OC(C)=O (stereo unspecified)
95 | 135 to 137 | c1cc(Nc2nncc3ccccc23)cc(-n2ccnc2)c1
96 | 112 to 113 | CCOC(=O)/C=C/c1cn(-c2ccc(C(F)(F)F)cn2)nc1C(C)C
97 | 237 to 240 | CCc1cc2c([nH]c1=O)c(C)cc1cc(CBr)oc12
98 | 116 to 120 | Cn1ccnc1Sc1cc(Cl)ccc1N
99 | 110 to 120 | COC(=O)c1cc(N)c(Cl)c(N)c1
100 | 204 to 205 | Cc1ccc(O)c2[nH]c(Cc3ccccc3)nc12
101 | 179 to 181 | CCCc1nc2c(N)nc3ccccc3c2n1CCCCCS(C)(=O)=O
